Results on 20 molecules are retold here after patent publication US10710984B2, “N-[(Pyrimidinylamino)propanyl]-and N-[(Pyridinylamino)-propanyl]arylcarboxamides” (Boehringer Ingelheim International GmbH, priority 2016, dated 2020).

Data set [1] concerns the target T1, human orexin 2 receptor (Homo sapiens, UniProt O43614).
T1 construct: CHO-K1 cells stably expressing the full-length human orexin 2 receptor and the aequorin photoprotein; expressed in transfected cells; host or cells: CHO-K1 (CHO-K1/hOx2)
T1 sequence (O43614 1-444): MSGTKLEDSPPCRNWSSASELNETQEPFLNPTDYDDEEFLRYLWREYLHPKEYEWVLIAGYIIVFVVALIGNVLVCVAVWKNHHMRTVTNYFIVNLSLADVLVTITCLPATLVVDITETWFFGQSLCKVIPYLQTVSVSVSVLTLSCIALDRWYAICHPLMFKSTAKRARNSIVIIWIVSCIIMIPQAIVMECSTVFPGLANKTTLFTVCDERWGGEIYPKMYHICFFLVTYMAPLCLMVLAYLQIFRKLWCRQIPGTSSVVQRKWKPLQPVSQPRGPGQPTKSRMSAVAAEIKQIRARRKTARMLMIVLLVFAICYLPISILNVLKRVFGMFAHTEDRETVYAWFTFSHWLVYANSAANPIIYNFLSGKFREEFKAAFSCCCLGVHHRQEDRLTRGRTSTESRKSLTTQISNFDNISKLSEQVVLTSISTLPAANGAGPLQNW
As to the kind of experiment: Assay B: in vitro testing of OX2R potency, OX2R IP1. The data set is classed as cell-based. The settings on record: Table 4a; 0.5 nM Orexin A. The source says: Activation of the orexin receptors expressed in cell lines results in an increase in intracellular IP3 concentration. IP1, a downstream metabolite of IP3, accumulates in cells following receptor activation and is stable in the presence of LiCl. Using Homogeneous Time-Resolved Fluorescence technology with Lumi4-Tb cryptate (commercially available from Cisbio Bioassay) and a suitable fluorescence plate reader. […] Chem. Genomics 2009, 3, 22-32. This technique is used to characterize pharmacological modification of the orexin receptors.
B. In Vitro Testing of OX2R Potency: OX2R IP1
IP1 measurements are performed in CHO-K1 cells stably expressing the full-length human orexin 2 receptor and the aequorin photoprotein. Cells are cultivated in Ham's nutrient mixture F12 medium with 10% fetal calf serum, in a 37° C., 95% humidity and 5% CO2 incubator. The CHO-K1/hOx2 cell mass is expanded to larger cell numbers. The cells are obtained as frozen cells in cryo-vials and stored until use at −150° C. The viability of the cells after thawing is >90%. In preparation for the assay, 24 hours before the assay, the cells are thawed at 37° C. and immediately diluted with cell culture medium. After centrifugation, the cell pellet is re-suspended in medium and then distributed into the assay plates with a density of 5000 cells/25 μL per well. The plates are incubated for one hour at room temperature to reduce edge effects before they are incubated for 24 hours at 37° C./5% CO2. Compounds are prepared by a 8-point serial dilution in DMSO and a final dilution step into assay buffer (HBSS with 20 mM HEPES, 0.1% BSA and 50 mM LiCl, pH 7.4) to ensure a final DMSO concentration of 1% in the assay. On the day of the assay, cells in the plate are washed twice with 60 μL assay buffer (20 μL buffer remained in the wells after washing), followed by adding 5 μL per well of compounds diluted in assay buffer. After 15 minutes of incubation at room temperature 5 μL per well of Orexin A peptide (final concentration: 0.5 nM) dissolved in assay buffer is added to the assay plate. The assay plate is incubated for 60 minutes at 37° C. Then 5 μL per well of Anti-IP1-Cryptate Tb solution and 5 μL per well of IP1-d2 dilution are added to all well of the plate and the plate is incubated for a further 60 minutes light protected at room temperature. The emission at 615 nm and 665 nm (Excitation wavelength: 320 nm) are measured using an EnVision reader (PerkinElmer). The ratio between the emission at 665 nm and 615 is calculated by the reader.
8-point four parametric non-linear curve fitting and determination of IC50 values and Hill slopes is performed using a regular analysis software e.g. AssayExplorer (Accelrys). In order to establish an agonist concentration independent parameter, Kb values are calculated using the following equation: IC50/((2+(A/EC50)^n)^1/n−1) (with A=concentration agonist, EC50=EC50 agonist, n=Hill slope agonist) (see P. Leff, I. G. Dougall, Trends Pharmacol. Sci. 1993, 14(4), 110-112).
Kb values from Assay A (OX1R) and Assay B (OX2R) can then provide a selectivity ratio which is independent of the agonist (Orexin A) concentration.

For data set [2], the target named is T2, human Orexin 1 receptor (Homo sapiens, UniProt O43613).
T2 construct: CHO-K1 cells stably expressing the full-length human Orexin 1 receptor and the aequorin photoprotein; expressed in transfected cells; host or cells: CHO-K1 (CHO-K1/hOx1)
T2 sequence (O43613 1-425): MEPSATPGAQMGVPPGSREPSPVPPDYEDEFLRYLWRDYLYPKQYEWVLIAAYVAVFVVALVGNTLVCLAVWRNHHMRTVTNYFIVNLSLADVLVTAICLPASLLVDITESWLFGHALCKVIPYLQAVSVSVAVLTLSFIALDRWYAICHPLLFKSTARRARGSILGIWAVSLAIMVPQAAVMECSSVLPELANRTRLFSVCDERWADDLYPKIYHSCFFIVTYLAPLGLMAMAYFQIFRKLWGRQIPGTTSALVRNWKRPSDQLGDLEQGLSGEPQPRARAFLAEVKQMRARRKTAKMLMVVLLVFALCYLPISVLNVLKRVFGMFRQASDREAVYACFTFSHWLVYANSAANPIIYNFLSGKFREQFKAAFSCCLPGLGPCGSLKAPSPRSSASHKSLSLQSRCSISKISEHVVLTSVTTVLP
As to the kind of experiment: Assay A: in vitro testing of OX1R potency, OX1R IP1. The data set is classed as cell-based. Particulars: for Kb: Table 4a, 50 nM Orexin A.

A short description of data set [3]: Assay D: assessment of log P. The data set is classed as physicochemical. How it is done:
The assay was performed following the description by S. F. Donovan and M. C. Pescatore in J. Chromatogr. A 952 (2002) 47-61.

For data set [4], the target named is T3, human MDR1 P-gp (Homo sapiens, UniProt P08183).
T3 construct: expressed in transfected cells; host or cells: MDCK (MDCK-MDR1)
The data set is described as follows: Assay C: efflux in MDCK cells transfected with the human MDR1 gene. The settings on record: MDCK-MDR1 cell monolayers, pH 7.4, 37° C., read-out: MDCK efflux ratio (BA/AB). Type of data set: in vitro ADME. How it is done: C. Assessment of Efflux in Madin-Darby Canine Kidney (MDCK) Cells Transfected with the Human MDR1 Gene
Apparent permeability coefficients (PE) of the compounds across the MDCK-MDR1 cell monolayers are measured (pH 7.4, 37° C.) in apical-to-basal (AB) and basal-to-apical (BA) transport direction. AB permeability (PEAB) represents drug absorption from the blood into the brain and BA permeability (PEBA) drug efflux from the brain back into the blood via both passive permeability as well as active transport mechanisms mediated by efflux and uptake transporters that are expressed on the MDCK-MDR1 cells, predominantly by the overexpressed human MDR1 P-gp. The compounds are assigned to permeability/absorption classes by comparison of the AB permeabilities with the AB permeabilities of reference compounds with known in vitro permeability and oral absorption in the human. Identical or similar permeabilities in both transport directions indicate passive permeation, vectorial permeability points to additional active transport mechanisms. Higher PEBA than PEAB indicates the involvement of active efflux mediated by MDR1 P-gp. Active transport is concentration-dependently saturable.
MDCK-MDR1 cells (1-2×10e5 cells/1 cm2 area) are seeded on filter inserts (Costar transwell polycarbonate or PET filters, 0.4 μm pore size) and cultured (DMEM) for 7 days. Subsequently, the MDR1 expression is boosted by culturing the cells with 5 mM sodium butyrate in full medium for 2 days. Compounds are dissolved in appropriate solvent (like DMSO, 1-20 mM stock solutions). Stock solutions are diluted with HTP-4 buffer (128.13 mM NaCl, 5.36 mM KCl, 1 mM MgSO4, 1.8 mM CaCl2, 4.17 mM NaHCO3, 1.19 mM Na2HPO4×7H2O, 0.41 mM NaH2PO4—H2O, 15 mM HEPES, 20 mM glucose, 0.25% BSA, pH 7.4) to prepare the transport solutions (0.1-300 μM compound, final DMSO<=0.5%). The transport solution (TL) is applied to the apical or basolateral donor side for measuring A-B or B-A permeability (3 filter replicates), respectively. The receiver side contains the same buffer as the donor side. Samples are collected at the start and end of experiment from the donor and at various time intervals for up to 2 hours also from the receiver side for concentration measurement by H PLC-MS/MS or scintillation counting. Sampled receiver volumes are replaced with fresh receiver solution.

Each structure is given as a SMILES string.

T3 sequence (P08183 whole entry): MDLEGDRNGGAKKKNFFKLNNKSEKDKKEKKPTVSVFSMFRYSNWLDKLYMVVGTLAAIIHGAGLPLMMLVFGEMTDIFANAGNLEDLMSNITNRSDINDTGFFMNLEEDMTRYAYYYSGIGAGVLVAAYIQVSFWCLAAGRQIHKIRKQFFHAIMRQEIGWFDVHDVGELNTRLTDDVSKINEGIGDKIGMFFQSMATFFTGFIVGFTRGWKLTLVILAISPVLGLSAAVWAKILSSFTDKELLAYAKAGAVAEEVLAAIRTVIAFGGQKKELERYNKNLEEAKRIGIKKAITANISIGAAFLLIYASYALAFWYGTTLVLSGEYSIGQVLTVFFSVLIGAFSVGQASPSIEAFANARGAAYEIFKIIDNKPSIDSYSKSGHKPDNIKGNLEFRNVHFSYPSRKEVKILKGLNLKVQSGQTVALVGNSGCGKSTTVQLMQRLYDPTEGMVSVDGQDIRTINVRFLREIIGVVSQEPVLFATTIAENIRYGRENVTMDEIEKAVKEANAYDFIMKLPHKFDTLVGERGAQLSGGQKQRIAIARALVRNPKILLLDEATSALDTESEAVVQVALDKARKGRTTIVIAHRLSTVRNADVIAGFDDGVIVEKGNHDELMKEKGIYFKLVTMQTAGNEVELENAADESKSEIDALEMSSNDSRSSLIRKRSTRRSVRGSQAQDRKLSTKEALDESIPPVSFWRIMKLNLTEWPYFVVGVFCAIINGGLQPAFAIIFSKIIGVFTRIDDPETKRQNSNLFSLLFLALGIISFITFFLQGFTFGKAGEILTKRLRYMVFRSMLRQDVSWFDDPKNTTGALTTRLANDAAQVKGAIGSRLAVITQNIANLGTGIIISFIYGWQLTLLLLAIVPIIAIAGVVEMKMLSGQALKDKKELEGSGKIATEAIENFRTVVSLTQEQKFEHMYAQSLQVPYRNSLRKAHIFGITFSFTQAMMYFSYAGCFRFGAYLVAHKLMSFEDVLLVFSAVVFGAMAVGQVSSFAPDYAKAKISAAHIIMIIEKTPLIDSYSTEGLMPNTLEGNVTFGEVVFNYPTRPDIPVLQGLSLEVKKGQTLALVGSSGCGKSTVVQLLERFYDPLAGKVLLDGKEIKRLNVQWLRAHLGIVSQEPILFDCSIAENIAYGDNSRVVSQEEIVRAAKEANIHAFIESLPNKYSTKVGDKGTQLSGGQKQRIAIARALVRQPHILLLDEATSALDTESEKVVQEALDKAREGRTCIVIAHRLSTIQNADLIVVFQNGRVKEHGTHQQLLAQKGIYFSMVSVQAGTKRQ

For the molecule `CC[C@@H](CNc1ccc(Cl)cn1)N(C)C(=O)c1cc(C)ccc1-n1nccn1` [Ex 1 in WO2016/ 034882, reference compound], the Kb in data set [1] stood at 43.2 nM.

For `CC[C@@H](CNc1ncc(C(F)(F)F)cn1)N(C)C(=O)c1cc(Cl)ccc1-n1nccn1` [Ex 39 in WO2016/ 034882, reference compound], in data set [1], the Kb is 81.5 nM.

As to `CC[C@@H](CNc1ccc(C(F)(F)F)cn1)N(C)C(=O)c1cc(Cl)ccc1-n1nccn1` [Ex 42 in WO2016/ 034882, reference compound], the Kb in data set [1] amounted to 36.2 nM.

With `CC[C@@H](CNc1ccc(C(F)(F)F)cn1)N(CC)C(=O)c1nc(C)ccc1-n1nccn1` [Ex 71 in WO2016/ 034882, reference compound], the Kb in data set [1] was 27.3 nM; in data set [2] it was 0.03 nM.

Consider `CC[C@@H](CNc1ncc(C(F)(F)F)cn1)N(CC)C(=O)c1nc(C)ccc1-n1nccn1` [Ex 73 in WO2016/ 034882, reference compound], for which, in data set [1], the Kb was determined as 148 nM.

For the molecule `CC[C@@H](CNc1ncc(C(F)(F)F)cn1)N(C)C(=O)c1nc(C)ccc1-c1ncccn1` [Ex 84 in WO2016/ 034882, reference compound], the Kb in data set [2] came out at 2.33 nM.

In data set [2], `CC[C@@H](CNc1ncc(C(F)(F)F)cn1)N(C)C(=O)c1c(F)cccc1-n1nccn1` [Ex 91 in WO2016/ 034882, reference compound] yielded a Kb of 3.96 nM.

With `CCN(C(=O)c1c(-n2nccn2)ccc(C)c1F)[C@@H](C)CNc1ncc(C(F)(F)F)cn1` [Example 1], the Kb came out at 21.8 nM in data set [1] and 0.041 nM in data set [2]. The molecule further returned a chromatographic logP in data set [3] of 2 to 4.

As for `CCN(C(=O)c1cc(C)ccc1-n1nccn1)[C@@H](C)CNc1ncc(C(F)(F)F)cn1` [Example 2], the Kb is 4.14 nM in data set [1] and 0.011 nM in data set [2]. The chromatographic logP in data set [3] is 2 to 4. In data set [4], the efflux ratio is below 3.

For the molecule `CCN(C(=O)c1cc(C)ccc1-n1nccn1)[C@@H](C)CN(C)c1ncc(C(F)(F)F)cn1` [Example 3], the Kb in data set [1] is 15.2 nM. In data set [3], this molecule showed a chromatographic logP of 2 to 4. In data set [2], the “OX2R Kb/OX1R Kb” value is 755 and the Kb was 0.02 nM. Further, the efflux ratio in data set [4] is below 3.

`CCN(C(=O)c1cc(OC)ccc1-n1nccn1)[C@@H](C)CNc1ncc(C(F)(F)F)cn1` [Example 4]: the figures for the Kb in data set [1] and in data set [2] were 14.4 nM and 0.02 nM, respectively. In addition, in data set [3], the chromatographic logP lay within 2 to 4. Further, the efflux ratio in data set [4] is below 3.

In the case of `CCN(C(=O)c1ccc(C)cc1-n1nccn1)[C@@H](C)CNc1ncc(C(F)(F)F)cn1` [Example 5], the Kb in data set [1] turned out to be 21.1 nM; in data set [2], 0.012 nM. The same molecule gave a chromatographic logP in data set [3] of 2 to 4.

Consider `CCN(C(=O)c1cc(C)ccc1-n1nccn1)[C@@H](C)CN(C)c1ccc(Cl)cn1` [Example 9], for which the Kb in data set [1] amounted to 4.79 nM. In data set [2], the “OX2R Kb/OX1R Kb” value worked out at 909 and the Kb was 0.0053 nM.

For the molecule `CCN(C(=O)c1cc(C)ccc1-n1nccn1)[C@@H](C)CNc1ccc(Cl)cn1` [Example 10], the Kb stood at 5.57 nM in data set [1] and 0.014 nM in data set [2].

As to `CCN(C(=O)c1cccc(F)c1-c1ncccn1)[C@@H](C)CNc1ccc(C(F)(F)F)cn1` [Example 11], the Kb was 3.15 nM in data set [1] and 0.015 nM in data set [2]. The chromatographic logP in data set [3] lay in the range of 2 to 4.

As to `CCN(C(=O)c1cccc(F)c1-c1ncccn1)[C@@H](C)CNc1ccc(F)c(C(F)(F)F)n1` [Example 12], the results for the Kb in data set [1] and in data set [2] were 4.15 nM and 0.019 nM, respectively. This molecule registered a chromatographic logP in data set [3] of 2 to 4.

For the molecule `CCN(C(=O)c1cc(F)ccc1-c1ncccn1)[C@@H](C)CNc1ncc(C(F)(F)F)cc1F` [Example 13], the Kb in data set [1] was found to be 5.16 nM; in data set [2], 0.012 nM. The same molecule gave a chromatographic logP in data set [3] of 2 to 4.

Regarding `CCN(C(=O)c1ccc(C)c(C)c1-n1nccn1)[C@@H](C)CNc1ccc(Cl)cn1` [Example 14], the Kb turned out to be 22.9 nM in data set [1] and 0.023 nM in data set [2]. In addition, the efflux ratio in data set [4] was below 3.

`CCN(C(=O)c1cccc(F)c1-n1nccn1)[C@@H](C)CNc1ccc(Cl)cn1` [Example 17]: the Kb turned out to be 11.4 nM in data set [1] and 0.043 nM in data set [2].

`CCN(C(=O)c1cccc(F)c1-n1nccn1)[C@@H](C)CNc1ccc(F)c(C(F)(F)F)n1` [Example 18]: the Kb in data set [1] was 16.3 nM; in data set [2], 0.078 nM. This molecule also showed a chromatographic logP in data set [3] of 2 to 4.

For orientation: chromatographic logP means lipophilicity estimated from chromatographic retention. Lower therefore signals lower lipophilicity.
